Laboratory results reported in the NIST ThermoML archive (doi:10.1016/j.fluid.2017.03.021).
± gives the expanded uncertainty stated by the source.

Key:
[1] = 101.33 kPa, Liquid; for speed of sound: Sing-around technique in a fixed-path interferometer; for mass density: Vibrating tube method
[2] = molar heat capacity at constant pressure; conditions: 101.33 kPa, Liquid, DSC

CCCC[n+]1ccn(C2CCCC2)c1.O=S(=O)([N-]S(=O)(=O)C(F)(F)F)C(F)(F)F
Conditions | mass density, [1] [kg/m3] | molar heat capacity at constant pressure, [2] [J/K/mol] | speed of sound, [1] [m/s]
287.15 K | 1384.9 ± 10 | – | 1298.1 ± 5
289.15 K | 1383.1 ± 10 | – | 1293.1 ± 5
291.15 K | 1381.2 ± 10 | – | 1288.1 ± 5
293.15 K | 1379.4 ± 10 | 648.54 ± 25 | 1283.2 ± 5
294.15 K | – | 649.39 ± 25 | –
295.15 K | 1377.5 ± 10 | 650.01 ± 25 | 1278.3 ± 5
296.15 K | – | 650.62 ± 25 | –
297.15 K | 1375.7 ± 10 | 651.28 ± 25 | 1273.4 ± 5
298.15 K | – | 651.99 ± 25 | –
299.15 K | 1373.8 ± 10 | 652.8 ± 25 | 1268.6 ± 5
300.15 K | – | 653.46 ± 25 | –
301.15 K | 1372 ± 10 | 654.08 ± 25 | 1263.8 ± 5
302.15 K | – | 654.84 ± 25 | –
303.15 K | 1370.2 ± 10 | 655.4 ± 25 | 1259 ± 5
304.15 K | – | 656.21 ± 25 | –
305.15 K | 1368.4 ± 10 | 657.01 ± 25 | 1254.2 ± 5
306.15 K | – | 657.63 ± 25 | –
307.15 K | 1366.5 ± 10 | 658.43 ± 26 | 1249.4 ± 5
308.15 K | – | 659.14 ± 26 | –
309.15 K | 1364.7 ± 10 | 659.9 ± 26 | 1244.7 ± 5
310.15 K | – | 660.66 ± 26 | –
311.15 K | 1362.9 ± 10 | 661.42 ± 26 | 1240 ± 5
312.15 K | – | 662.22 ± 26 | –
313.15 K | 1361.1 ± 10 | 663.07 ± 26 | 1235.3 ± 5
314.15 K | – | 663.88 ± 26 | –
315.15 K | 1359.3 ± 10 | 664.73 ± 26 | 1230.6 ± 5
316.15 K | – | 665.35 ± 26 | –
317.15 K | 1357.5 ± 10 | 666.15 ± 26 | 1226 ± 5
318.15 K | – | 666.77 ± 26 | –
319.15 K | 1355.7 ± 10 | 667.43 ± 26 | 1221.4 ± 5
320.15 K | – | 668.19 ± 26 | –
321.15 K | 1353.9 ± 10 | 668.94 ± 26 | 1216.7 ± 5
322.15 K | – | 669.75 ± 26 | –
323.15 K | 1352.1 ± 10 | 670.51 ± 26 | 1212.1 ± 5
324.15 K | – | 671.26 ± 26 | –
325.15 K | 1350.3 ± 10 | 672.02 ± 26 | 1207.6 ± 5
326.15 K | – | 672.78 ± 26 | –
327.15 K | 1348.5 ± 9.9 | 673.49 ± 26 | 1203 ± 5
328.15 K | – | 674.44 ± 26 | –
329.15 K | 1346.7 ± 9.9 | 675.15 ± 26 | 1198.5 ± 5
330.15 K | – | 675.95 ± 26 | –
331.15 K | 1344.9 ± 9.9 | 676.8 ± 26 | 1193.9 ± 5
332.15 K | – | 677.56 ± 26 | –
333.15 K | 1343.1 ± 9.8 | 678.41 ± 26 | 1189.4 ± 5
334.15 K | – | 679.22 ± 26 | –
335.15 K | 1341.3 ± 9.8 | 680.21 ± 26 | 1185 ± 5
336.15 K | – | 680.88 ± 26 | –
337.15 K | 1339.6 ± 9.8 | 681.63 ± 26 | 1180.5 ± 5
338.15 K | – | 682.34 ± 26 | –
339.15 K | 1337.8 ± 9.8 | 683.01 ± 26 | 1176.1 ± 5
340.15 K | – | 683.91 ± 26 | –
341.15 K | 1336 ± 9.7 | 684.76 ± 27 | 1171.7 ± 5
342.15 K | – | 685.47 ± 27 | –
343.15 K | 1334.3 ± 9.7 | 686.27 ± 27 | 1167.3 ± 5
344.15 K | – | 686.94 ± 27 | –
345.15 K | – | 687.65 ± 27 | –
346.15 K | – | 688.45 ± 27 | –
347.15 K | – | 689.07 ± 27 | –
348.15 K | – | 690.11 ± 27 | –
